The values below come from publication PMC9500072, “Topical application of an irreversible small molecule inhibitor of lysyl oxidases ameliorates skin scarring and fibrosis” (Nature Communications, 2022).

Each structure is given as a SMILES string. Like-named read-outs stand apart in the source and are kept apart here.

Holding throughout (type): biochemical
In one assay the target is T1, Dog Recombinant LOXL2 (Canis lupus familiaris, UniProt A0A8I3P9Y5).
T1 construct: made in house; host or cells: HEK-293 clones (provided by Dr. Fernando Rodríguez Pascual)
T1 sequence (A0A8I3P9Y5 1-777): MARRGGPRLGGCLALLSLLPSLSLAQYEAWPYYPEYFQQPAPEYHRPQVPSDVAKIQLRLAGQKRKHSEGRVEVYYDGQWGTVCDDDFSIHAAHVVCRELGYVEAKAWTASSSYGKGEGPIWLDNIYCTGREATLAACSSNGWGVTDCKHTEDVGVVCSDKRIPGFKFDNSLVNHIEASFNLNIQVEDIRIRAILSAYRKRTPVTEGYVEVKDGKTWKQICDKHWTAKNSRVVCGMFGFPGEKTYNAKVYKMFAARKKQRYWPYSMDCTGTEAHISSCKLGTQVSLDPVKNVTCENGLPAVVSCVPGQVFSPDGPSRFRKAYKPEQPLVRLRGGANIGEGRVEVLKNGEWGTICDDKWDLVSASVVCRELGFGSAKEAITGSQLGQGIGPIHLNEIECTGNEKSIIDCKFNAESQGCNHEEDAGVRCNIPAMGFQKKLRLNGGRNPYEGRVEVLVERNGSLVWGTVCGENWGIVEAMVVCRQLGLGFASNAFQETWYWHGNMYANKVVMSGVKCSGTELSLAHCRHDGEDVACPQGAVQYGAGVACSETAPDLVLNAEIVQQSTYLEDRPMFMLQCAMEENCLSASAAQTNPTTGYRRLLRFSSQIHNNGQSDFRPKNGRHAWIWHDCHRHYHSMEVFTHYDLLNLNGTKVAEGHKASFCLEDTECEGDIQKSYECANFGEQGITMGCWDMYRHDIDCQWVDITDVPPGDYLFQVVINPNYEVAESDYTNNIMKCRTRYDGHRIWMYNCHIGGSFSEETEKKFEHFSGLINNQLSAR
Description: Amine oxidase inhibition profile, dog LOXL2.

The target in the next assay is T2, recombinant human LOXL4 (Homo sapiens, UniProt Q96JB6).
T2 construct: Dr. Fernando Rodríguez Pascual, university of Madrid, Spain (academic provider)
T2 sequence (Q96JB6 25-756): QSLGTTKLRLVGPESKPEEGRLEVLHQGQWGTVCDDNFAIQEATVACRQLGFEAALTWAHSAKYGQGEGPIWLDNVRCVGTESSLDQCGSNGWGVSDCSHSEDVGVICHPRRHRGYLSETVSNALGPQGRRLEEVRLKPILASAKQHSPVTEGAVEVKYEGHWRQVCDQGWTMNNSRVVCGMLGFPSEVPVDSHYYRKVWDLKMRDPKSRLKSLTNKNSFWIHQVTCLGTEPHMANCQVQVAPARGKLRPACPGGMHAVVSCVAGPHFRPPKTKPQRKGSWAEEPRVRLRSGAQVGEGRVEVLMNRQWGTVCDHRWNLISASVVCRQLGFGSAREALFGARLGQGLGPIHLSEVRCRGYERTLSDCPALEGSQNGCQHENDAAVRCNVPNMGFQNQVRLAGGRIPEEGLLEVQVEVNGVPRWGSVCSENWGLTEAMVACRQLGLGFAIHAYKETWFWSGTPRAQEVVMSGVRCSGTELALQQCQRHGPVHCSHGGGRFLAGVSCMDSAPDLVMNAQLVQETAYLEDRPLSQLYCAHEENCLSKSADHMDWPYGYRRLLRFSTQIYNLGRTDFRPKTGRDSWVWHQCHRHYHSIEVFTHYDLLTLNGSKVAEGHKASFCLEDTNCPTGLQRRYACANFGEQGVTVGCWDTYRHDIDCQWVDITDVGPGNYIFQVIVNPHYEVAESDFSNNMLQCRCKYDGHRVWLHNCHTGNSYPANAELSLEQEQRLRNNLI
Description: Amplex Red oxidation assay, LOXL4 inhibition. On the procedure:
The measurement of the enzymatic activity of all lysyl oxidase family members was based on the detection of hydrogen peroxide with an Amplex-Red oxidation assay, as previously described; miniaturized in 384 well formats, with the appropriate combination of substrate and assay buffer for each individual enzyme. After a 30 min pre-incubation of the enzyme at 37 °C with the test compound (or with different incubation times for the time-dependency assay), one volume of reaction mixture containing 120 μM Amplex Red (AR) (Life Technologies), 1.5 U/mL horseradish peroxidase (HRP) (Sigma-Aldrich) and the specific substrate was added to each sample. The relative fluorescence units (RFU) were then measured every 2.5 min for 30 min at 37 °C, excitation 565 nm and emission 590, on a BMG Clariostar Microplate Reader. All the substrates were used at concentrations corresponding to their Km towards the corresponding enzyme, or with a range of different concentrations for the substrate competition experiments.
Lysyl oxidases assay buffer contained 1.2 M urea, 50 mM sodium borate buffer, pH 8.2 and 100 µM β-aminoproprionitrile (BAPN, Sigma-Aldrich) was used for low control.
Recombinant human LOXL1 was expressed and purified from cDNA (GeneArt) and 10 mM putrescine was used as substrate. Recombinant human and mouse LOXL2 (R&D Systems) were challenged with 5 mM putrescine (Sigma-Aldrich) as the substrate. Rat and dog recombinant LOXL2 were amplified and purified in house from HEK-293 clones kindly provided by Dr. Fernando Rodríguez Pascual, Madrid University, and used in the same conditions as for the human form. 2 mM putrescine was used as the substrate for recombinant human LOXL3 (R&D Systems) and LOXL4 (Dr. Fernando Rodríguez Pascual, university of Madrid, Spain) assays.

The next assay deals with T3, Human Recombinant MAO-B (Homo sapiens, UniProt P27338).
T3 sequence (P27338 1-520): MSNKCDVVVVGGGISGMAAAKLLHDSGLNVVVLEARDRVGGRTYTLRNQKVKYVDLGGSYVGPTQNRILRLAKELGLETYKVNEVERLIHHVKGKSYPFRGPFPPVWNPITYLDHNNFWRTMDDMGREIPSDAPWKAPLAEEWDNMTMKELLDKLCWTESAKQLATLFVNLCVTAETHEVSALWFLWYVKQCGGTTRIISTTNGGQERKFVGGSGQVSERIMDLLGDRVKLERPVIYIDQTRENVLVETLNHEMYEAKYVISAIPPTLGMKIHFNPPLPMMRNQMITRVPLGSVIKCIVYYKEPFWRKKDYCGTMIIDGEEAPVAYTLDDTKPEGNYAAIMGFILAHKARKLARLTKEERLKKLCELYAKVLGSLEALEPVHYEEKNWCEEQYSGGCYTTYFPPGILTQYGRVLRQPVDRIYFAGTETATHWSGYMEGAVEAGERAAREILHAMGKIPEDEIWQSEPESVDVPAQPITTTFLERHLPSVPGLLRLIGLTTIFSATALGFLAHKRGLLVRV
Description: Amine oxidase inhibition profile, MAO-B. The text has this:
Supplem entary Materi als:
Supplementary Table S1: Amine oxidase inhibition profile of PXS -4787, PXS-6302 and
Supplementary Table S2: Perm eability profile of PXS -6302.

[1] abbreviates: 30 min pre-incubation, read-out: rh LOXL4 IC50.
[2] abbreviates: read-out: Human Recombinant LOXL4 pIC50±SD (converted).
The mark [3] stands for this setting: read-out: Recombinant MAO-B IC50.

Consider `NC/C=C(\F)CS(=O)(=O)c1ccccc1` [PXS-4787], for which the IC50 at Dog Recombinant LOXL2 was 620 nM; on recombinant human LOXL4 (setting [1]) it was 220 nM; at recombinant human LOXL4 (setting [2]) it was 200 nM; on Human Recombinant MAO-B (setting [3]) it was over 100 µM. Further, at recombinant human LOXL4 (log conc -4.5229, read-out: Fig 2A inhibition (mean)), the inhibition at 30 µM came out at 102%. The inhibition at 10 µM on recombinant human LOXL4 (log conc -5, read-out: Fig 2A inhibition (mean)) was 101%. At recombinant human LOXL4 (log conc -5.4771, read-out: Fig 2A inhibition (mean)), the inhibition at 3.333 µM was 98.6%. In addition, the inhibition at 1.111 µM on recombinant human LOXL4 (log conc -5.9542, read-out: Fig 2A inhibition (mean)) was found to be 89.8%. Moreover, the inhibition at 0.3704 µM at recombinant human LOXL4 (log conc -6.4313, read-out: Fig 2A inhibition (mean)) was 66.3%. In addition, the inhibition at 0.1235 µM at recombinant human LOXL4 (log conc -6.9083, read-out: Fig 2A inhibition (mean)) stood at 36.5%. The inhibition at 0.0412 µM at recombinant human LOXL4 (log conc -7.3851, read-out: Fig 2A inhibition (mean)) came to 14.1%. For the same molecule, at recombinant human LOXL4 (log conc -7.8633, read-out: Fig 2A inhibition (mean)), the inhibition at 0.0137 µM was found to be 8.84%. Also, the inhibition at 0.0046 µM on recombinant human LOXL4 (log conc -8.3372, read-out: Fig 2A inhibition (mean)) was determined as 2.39%. The inhibition at […] at recombinant human LOXL4 (log conc -8.8239, read-out: Fig 2A inhibition (mean)) stood at 0.738%. Moreover, the inhibition at 0.0005 µM on recombinant human LOXL4 (log conc -9.301, read-out: Fig 2A inhibition (mean)) is -0.645%.

Turning to `N#CCCN` [BAPN, β-aminoproprionitrile, reference compound], the “Dog Recombinant LOXL2 pIC50±SD” value at Dog Recombinant LOXL2 was found to be 6.3 ± 0.1. Moreover, the results for the IC50 on Dog Recombinant LOXL2, on recombinant human LOXL4 (setting [1]) and on Human Recombinant MAO-B (setting [3]) were 480 nM, 280 nM and over 100 µM, respectively. Moreover, the “Human Recombinant LOXL4 pIC50±SD” value at recombinant human LOXL4 came out at 6.6 ± 0.1. Also, on Human Recombinant MAO-B, the “Recombinant MAO-B pIC50” value was under 4.

For `NC/C=C(\F)C(F)(F)S(=O)(=O)c1ccccc1` [PXS-6302], the IC50 at Dog Recombinant LOXL2 was 340 nM; at recombinant human LOXL4 (setting [1]) it was 320 nM; at recombinant human LOXL4 (setting [2]) it was 316 nM; at Human Recombinant MAO-B, over 30 µM.

A word on the inhibition: it is the change of the read-out against control, counted positive when it falls.
